Source: ChEMBL document CHEMBL4261614, “Discovery of traditional Chinese medicine monomers and their synthetic intermediates, analogs or derivatives for battling P-gp-mediated multi-drug resistance” (Eur J Med Chem, 2018)

Assays:
Homo sapiens = species on record: Homo sapiens; experiment: Inhibition of P-gp in human KBv200 cells assessed as potentiation of vincristine-induced cytotoxicity by measuring reduction in vincristine IC50 at 25 uM after 96 hrs by […] relative to vincristine alone; type: cell-based
[1] = biological target: ATP-dependent translocase ABCB1 (Homo sapiens, UniProt P08183); experiment: Inhibition of MDR1 (unknown origin) expressed in MDCK-MDR1 cells assessed as increase in Rh123 accumulation at 100 uM after 30 mins by spectrofluorometric analysis relative to control; type: cell-based; details: mdck-mdr1, 0.5 h
Chain of ATP-dependent translocase ABCB1 (P08183 whole entry): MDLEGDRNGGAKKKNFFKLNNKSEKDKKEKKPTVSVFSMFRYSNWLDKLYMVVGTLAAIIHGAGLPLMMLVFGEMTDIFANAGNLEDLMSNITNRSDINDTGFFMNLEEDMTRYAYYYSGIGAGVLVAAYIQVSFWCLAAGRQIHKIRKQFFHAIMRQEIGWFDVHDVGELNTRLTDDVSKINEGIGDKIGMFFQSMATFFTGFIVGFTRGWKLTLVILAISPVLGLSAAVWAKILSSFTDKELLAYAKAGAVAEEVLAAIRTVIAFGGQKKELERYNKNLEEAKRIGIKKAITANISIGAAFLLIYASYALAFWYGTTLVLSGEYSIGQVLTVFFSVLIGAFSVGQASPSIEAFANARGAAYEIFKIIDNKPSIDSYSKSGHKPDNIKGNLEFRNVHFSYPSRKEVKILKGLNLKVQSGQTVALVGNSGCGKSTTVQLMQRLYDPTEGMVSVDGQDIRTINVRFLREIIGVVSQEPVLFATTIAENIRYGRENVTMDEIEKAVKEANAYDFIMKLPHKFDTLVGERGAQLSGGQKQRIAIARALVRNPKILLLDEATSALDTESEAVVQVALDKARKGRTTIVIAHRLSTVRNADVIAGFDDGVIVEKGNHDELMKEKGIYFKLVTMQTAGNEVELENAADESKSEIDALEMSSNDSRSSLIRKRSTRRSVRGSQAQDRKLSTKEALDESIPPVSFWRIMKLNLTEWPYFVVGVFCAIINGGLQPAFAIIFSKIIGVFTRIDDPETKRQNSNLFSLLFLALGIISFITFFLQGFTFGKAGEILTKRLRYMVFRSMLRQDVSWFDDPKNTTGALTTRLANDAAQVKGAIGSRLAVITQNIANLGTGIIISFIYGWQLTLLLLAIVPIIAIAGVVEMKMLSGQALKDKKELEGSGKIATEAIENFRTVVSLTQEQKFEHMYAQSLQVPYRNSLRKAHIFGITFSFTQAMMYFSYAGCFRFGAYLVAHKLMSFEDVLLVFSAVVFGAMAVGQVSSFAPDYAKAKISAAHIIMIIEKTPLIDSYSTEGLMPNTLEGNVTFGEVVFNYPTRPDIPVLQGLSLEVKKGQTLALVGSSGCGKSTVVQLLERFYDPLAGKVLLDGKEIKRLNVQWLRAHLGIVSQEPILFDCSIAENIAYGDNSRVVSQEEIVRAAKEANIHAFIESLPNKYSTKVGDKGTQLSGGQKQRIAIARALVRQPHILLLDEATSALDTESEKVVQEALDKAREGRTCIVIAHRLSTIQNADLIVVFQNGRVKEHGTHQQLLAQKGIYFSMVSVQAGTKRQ

SMILES | Ratio IC50 (Homo sapiens) | fold change (FC) [1]
COc1cc2c(c(OC)c1OC)-c1c(cc(OC)c(OC)c1OC)C[C@](C)(O)[C@@H](C)C2 | 3.8 | 
COc1cc2c(c(OC)c1OC)-c1c(cc(OC)c(OC)c1OC)C[C@H](C)[C@H](C)C2 | 309 | 
CC(C)C(=O)OC(C)(C)[C@@H]1Cc2c(ccc3ccc(=O)oc23)O1 |  | 9
COc1cc2c(c(OC)c1OC)-c1c(cc3c(c1OC)OCO3)CC(C)C(C)C2 (centres undefined) | 23.5 | 
